Bridge positions count the residues as written; N and C are the ends. Square brackets hold non-standard residues; d marks the D form. Peptide text beside a SMILES is read from it. dPhe(3,4-F2) = N[C@H](Cc1ccc(F)c(F)c1)C(=O)O; dPhe(4-Cl) = N[C@H](Cc1ccc(Cl)cc1)C(=O)O; dPhe(2-F) = N[C@H](Cc1ccccc1F)C(=O)O; Nle = CCCC[C@H](N)C(=O)O; Orn = NCCC[C@H](N)C(=O)O; Dab = NCC[C@H](N)C(=O)O; Dap = NC[C@H](N)C(=O)O
The molecules below were run against hMC1r (Homo sapiens, UniProt Q01726) (assay: Assay for agonist activity: cAMP accumulation in HBL melanoma cells). Conditions: HBL, compared to NDP-α-MSH as 100%, read-out: MC-1 Emax (average; cAMP HBL).
Type: cell-based
Design: endogenous in cells; host or cells: HBL human melanoma cells
Procedure: 8.2 Assay for Agonist Activity.
Confluent HBL cells that express hMC1r or HEK-293 cells that express recombinant hMC4r were detached from culture plates by incubation in enzyme-free cell dissociation buffer. Dispersed cells were suspended in Earle's Balanced Salt Solution containing 10 mM HEPES (pH 7.5), 1 mM MgCl2, 1 mM glutamine, 0.5% albumin and 0.3 mM 3-isobutyl-1-methyl-xanthine (IBMX), a phosphodiesterase inhibitor. The cells were plated in 96-well plates at a density of 0.4×10^5 cells per well for HBL cells and 0.5×10^5 cells per well for HEK-293 cells and pre-incubated for 10 minutes. Cells were exposed for 15 minutes at 37° C. to peptides of the present invention dissolved in DMSO (final DMSO concentration of 1%) at a concentration range of 0.05-5000 nM in a total assay volume of 200 μL. […] Data analysis was performed by nonlinear regression analysis with Graph-Pad Prism® software.
All results are expressed in nM except for Emax values, which are percentage values. Peptides with the captioned primary sequence were synthesized and purified as described in Section 7 above, with the resulting peptide having the structure depicted.

Chain of hMC1r (Q01726 whole entry): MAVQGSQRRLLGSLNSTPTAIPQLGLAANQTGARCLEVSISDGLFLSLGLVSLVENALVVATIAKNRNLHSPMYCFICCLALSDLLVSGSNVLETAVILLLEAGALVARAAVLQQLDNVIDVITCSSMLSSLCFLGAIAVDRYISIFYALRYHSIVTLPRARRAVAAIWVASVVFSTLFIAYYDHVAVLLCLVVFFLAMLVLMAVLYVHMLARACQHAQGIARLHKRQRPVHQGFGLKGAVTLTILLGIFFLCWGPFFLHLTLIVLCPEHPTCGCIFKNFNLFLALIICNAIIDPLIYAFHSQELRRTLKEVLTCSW

Compound | Emax [%]
CCCC[C@H](NC(C)=O)C(=O)N[C@H]1CCC(=O)NCC[C@@H](C(=O)N[C@H](Cc2ccc3ccccc3c2)C(N)=O)NC(=O)[C@H](CCCNC(=N)N)NC(=O)[C@@H](Cc2ccccc2)NC(=O)[C@H](Cc2c[nH]cn2)NC1=O [Example 9.11, Ac-Nle-cyclo(Glu-His-D-Phe-Arg-Dab)-D-Nal 2-NH2] | 69
CCCCCC(=O)N[C@H]1CCC(=O)NCC[C@@H](C(=O)N[C@@H](Cc2c[nH]c3ccccc23)C(N)=O)NC(=O)[C@H](CCCNC(=N)N)NC(=O)[C@@H](Cc2ccccc2)NC(=O)[C@H](Cc2c[nH]cn2)NC1=O [Example 9.17, CH3—(CH2)4—C(═O)-cyclo(Glu-His-D-Phe-Arg-Dab)-Trp-NH2] | 90
CCCC[C@H](NC(C)=O)C(=O)N[C@H]1CCNC(=O)CCC(=O)NCC[C@@H](C(=O)N[C@@H](Cc2c[nH]c3ccccc23)C(N)=O)NC(=O)[C@H](CCCNC(=N)N)NC(=O)[C@@H](Cc2ccccc2)NC(=O)[C@H](Cc2c[nH]cn2)NC1=O [Example 9.27, Ac-Nle-cyclo(Dab-His-D-Phe-Arg-Dab)-Trp-NH2] | 92
CCCC[C@H](NC(C)=O)C(=O)N[C@H]1CCC(=O)NCC[C@@H](C(=O)N[C@@H](Cc2c[nH]c3ccccc23)C(N)=O)NC(=O)[C@H](CCCNC(=N)N)NC(=O)[C@@H](Cc2ccccc2)NC(=O)[C@H](CCCCN)NC1=O [Example 9.40, Ac-Nle-cyclo(Glu-Lys-D-Phe-Arg-Dab)-Trp-NH2] | 108
CCCC[C@H](NC(C)=O)C(=O)N[C@H]1CCC(=O)NCC[C@@H](C(=O)N[C@@H](Cc2c[nH]c3ccccc23)C(N)=O)NC(=O)[C@H](CCCNC(=N)N)NC(=O)[C@@H](Cc2ccccc2)NC(=O)[C@H]2CCCN2C1=O [Example 9.66, Ac-Nle-cyclo(Glu-Pro-D-Phe-Arg-Dab)-Trp-NH2] | 97
CCCC[C@H](NC(C)=O)C(=O)N[C@H]1CCC(=O)NCC[C@@H](C(N)=O)NC(=O)[C@@H](Cc2ccccc2)NC(=O)[C@H](Cc2c[nH]cn2)NC1=O [Example 9.46, Ac-Nle-cyclo(Glu-His-D-Phe-Dab)-NH2] (Ac-[Nle]EH[dF][Dab]-NH2; lactam 2-5) | 51
N=C(N)NCCC[C@@H]1NC(=O)[C@@H](Cc2ccccc2)NC(=O)[C@H](Cc2c[nH]cn2)NC(=O)[C@@H](NC(=O)Cc2ccccc2)CCC(=O)NCC[C@@H](C(=O)N[C@@H](Cc2c[nH]c3ccccc23)C(N)=O)NC1=O [Example 9.23, phenyl acetyl-cyclo(Glu-His-D-Phe-Arg-Dab)-Trp-NH2] | 82
CCCC[C@H](NC(C)=O)C(=O)N[C@H]1CC(=O)NC[C@@H](C(=O)N[C@@H](Cc2c[nH]c3ccccc23)C(N)=O)NC(=O)[C@H](CCCNC(=N)N)NC(=O)[C@@H](Cc2ccccc2)NC(=O)[C@H](Cc2c[nH]cn2)NC1=O [Example 9.4, Ac-Nle-cyclo(Asp-His-D-Phe-Arg-Dap)-Trp-NH2] (Ac-[Nle]DH[dF]R[Dap]W-NH2; lactam 2-6) | 88
CCCC[C@H](NC(C)=O)C(=O)N[C@H]1CCC(=O)NCC[C@@H](C(N)=O)NC(=O)[C@H](CCCNC(=N)N)NC(=O)[C@@H](Cc2ccccc2)NC(=O)[C@H](CCCN)NC1=O [Example 9.56, Ac-Nle-cyclo(Glu-Orn-D-Phe-Arg-Dab)-NH2] (Ac-[Nle]E[Orn][dF]R[Dab]-NH2; lactam 2-6) | 102
CCCC[C@H](NC(C)=O)C(=O)N[C@H]1CCC(=O)NCCCC[C@@H](C(=O)N[C@@H](Cc2c[nH]c3ccccc23)C(N)=O)NC(=O)[C@H](CCCNC(=N)N)NC(=O)[C@@H](Cc2ccccc2)NC(=O)[C@H](Cc2c[nH]cn2)NC1=O [Example 9.1, Ac-Nle-cyclo(Glu-His-D-Phe-Arg-Lys)-Trp-NH2] | 97
CCCC[C@H](NC(C)=O)C(=O)N[C@H]1CCC(=O)NCC[C@@H](C(=O)N[C@@H](Cc2c[nH]c3ccccc23)C(N)=O)NC(=O)CNC(=O)[C@@H](Cc2ccccc2)NC(=O)[C@H](Cc2c[nH]cn2)NC1=O [Example 9.34, Ac-Nle-cyclo(Glu-His-D-Phe-Gly-Dab)-Trp-NH2] (Ac-[Nle]EH[dF]G[Dab]W-NH2; lactam 2-6) | 59
CCCC[C@H](NC(C)=O)C(=O)N[C@H]1CCC(=O)NCC[C@@H](C(=O)N[C@H](Cc2c[nH]c3ccccc23)C(N)=O)NC(=O)[C@H](CCCNC(=N)N)NC(=O)[C@@H](Cc2ccccc2)NC(=O)[C@H](Cc2c[nH]cn2)NC1=O [Example 9.7, Ac-Nle-cyclo(Glu-His-D-Phe-Arg-Dab)-D-Trp-NH2] | 93
CCCC[C@H](NC(C)=O)C(=O)N[C@H]1CCC(=O)NCC[C@@H](C(=O)N[C@@H](Cc2c[nH]c3ccccc23)C(N)=O)NC(=O)[C@H](CCCNC(=N)N)NC(=O)[C@H](Cc2ccccc2)NC(=O)[C@H](Cc2c[nH]cn2)NC1=O [Example 9.8, Ac-Nle-cyclo(Glu-His-Phe-Arg-Dab)-Trp-NH2] | 88
CCCC[C@H](NC(C)=O)C(=O)N[C@H]1CCC(=O)NCC[C@@H](C(N)=O)NC(=O)[C@H](CCCNC(=N)N)NC(=O)[C@@H](Cc2ccc(Cl)cc2)NC(=O)[C@H](CCCN)NC1=O [Example 9.59, Ac-Nle-cyclo(Glu-Orn-D-Phe(4-Cl)-Arg-Dab)-NH2] (Ac-[Nle]E[Orn][dPhe(4-Cl)]R[Dab]-NH2; lactam 2-6) | 100
CCCC[C@H](NC(C)=O)C(=O)N[C@H]1CCC(=O)NCC[C@@H](C(=O)N[C@@H](Cc2c[nH]c3ccccc23)C(N)=O)NC(=O)[C@H](CCCNC(=N)N)NC(=O)[C@@H](Cc2ccccc2)NC(=O)[C@H](CCCNC(N)=O)NC1=O [Example 9.38, Ac-Nle-cyclo(Glu-Cit-D-Phe-Arg-Dab)-Trp-NH2] | 97

The next lines start with the values.

Emax [%] | Compound
78 | CCCC[C@H](NC(C)=O)C(=O)N[C@H]1CCNC(=O)CCC(=O)NC[C@@H](C(=O)N[C@@H](Cc2c[nH]c3ccccc23)C(N)=O)NC(=O)[C@H](CCCNC(=N)N)NC(=O)[C@@H](Cc2ccccc2)NC(=O)[C@H](Cc2c[nH]cn2)NC1=O [Example 9.29, Ac-Nle-cyclo(Dab-His-D-Phe-Arg-Dap)-Trp-NH2]
73 | CCCC[C@H](NC(C)=O)C(=O)N[C@H]1CCC(=O)NCC[C@@H](C(=O)N[C@H](Cc2cccc3ccccc23)C(N)=O)NC(=O)[C@H](CCCNC(=N)N)NC(=O)[C@@H](Cc2ccccc2)NC(=O)[C@H](Cc2c[nH]cn2)NC1=O [Example 9.9, Ac-Nle-cyclo(Glu-His-D-Phe-Arg-Dab)-D-Nal 1-NH2]
75 | CC(=O)N[C@H](Cc1ccccc1)C(=O)N[C@H]1CCC(=O)NCC[C@@H](C(=O)N[C@@H](Cc2c[nH]c3ccccc23)C(N)=O)NC(=O)[C@H](CCCNC(=N)N)NC(=O)[C@@H](Cc2ccccc2)NC(=O)[C@H](Cc2c[nH]cn2)NC1=O [Example 9.12, Ac-D-Phe-cyclo(Glu-His-D-Phe-Arg-Dab)-Trp-NH2]
70 | CCCC[C@H](NC(C)=O)C(=O)N[C@H]1CNC(=O)CCC(=O)NC[C@@H](C(=O)N[C@@H](Cc2c[nH]c3ccccc23)C(N)=O)NC(=O)[C@H](CCCNC(=N)N)NC(=O)[C@@H](Cc2ccccc2)NC(=O)[C@H](Cc2c[nH]cn2)NC1=O [Example 9.28, Ac-Nle-cyclo(Dap-His-D-Phe-Arg-Dap)-Trp-NH2]
97 | CCCC[C@H](NC(C)=O)C(=O)N[C@H]1CCC(=O)NCC[C@@H](C(N)=O)NC(=O)[C@H](CCCNC(=N)N)NC(=O)[C@@H](Cc2ccc(F)c(F)c2)NC(=O)[C@H](CCCN)NC1=O [Example 9.62, Ac-Nle-cyclo(Glu-Orn-D-Phe(3,4-F)-Arg-Dab)-NH2] (Ac-[Nle]E[Orn][dPhe(3,4-F2)]R[Dab]-NH2; lactam 2-6)
95 | CCCC[C@H](NC(C)=O)C(=O)N[C@H]1CCC(=O)NCC[C@@H](C(N)=O)NC(=O)[C@H](CCCNC(=N)N)NC(=O)[C@@H](Cc2ccccc2F)NC(=O)[C@H](CCCN)NC1=O [Example 9.60, Ac-Nle-cyclo(Glu-Orn-D-Phe(2-F)-Arg-Dab)-NH2] (Ac-[Nle]E[Orn][dPhe(2-F)]R[Dab]-NH2; lactam 2-6)
85 | CCCC[C@H](NC(C)=O)C(=O)N[C@H]1CCC(=O)NCC[C@@H](C(N)=O)NC(=O)[C@H](CCCNC(=N)N)NC(=O)[C@@H](Cc2ccccc2)NC(=O)[C@H](Cc2c[nH]cn2)NC1=O [Example 9.32, Ac-Nle-cyclo(Glu-His-D-Phe-Arg-Dab)-NH2]
91 | CCCC[C@H](NC(C)=O)C(=O)N[C@H]1CCC(=O)NCCC[C@@H](C(=O)N[C@@H](Cc2c[nH]c3ccccc23)C(N)=O)NC(=O)[C@H](CCCNC(=N)N)NC(=O)[C@@H](Cc2ccccc2)NC(=O)[C@H](Cc2c[nH]cn2)NC1=O [Example 9.6, Ac-Nle-cyclo(Glu-His-D-Phe-Arg-Orn)-Trp-NH2]
85 | N=C(N)NCCC[C@@H]1NC(=O)[C@@H](Cc2ccccc2)NC(=O)[C@H](Cc2c[nH]cn2)NC(=O)[C@@H](NC(=O)CC2CCCCC2)CCC(=O)NCC[C@@H](C(=O)N[C@@H](Cc2c[nH]c3ccccc23)C(N)=O)NC1=O [Example 9.22, cyclohexyl acetyl-cyclo(Glu-His-D-Phe-Arg-Dab)-Trp-NH2]
83 | N=C(N)NCCC[C@@H]1NC(=O)[C@@H](Cc2ccccc2)NC(=O)[C@H](Cc2c[nH]cn2)NC(=O)[C@@H](NC(=O)CC2CCCC2)CCC(=O)NCC[C@@H](C(=O)N[C@@H](Cc2c[nH]c3ccccc23)C(N)=O)NC1=O [Example 9.21, cyclopentyl acetyl-cyclo(Glu-His-D-Phe-Arg-Dab)-Trp-NH2]
83 | N=C(N)NCCC[C@@H]1NC(=O)[C@@H](Cc2ccccc2)NC(=O)[C@H](Cc2c[nH]cn2)NC(=O)[C@@H](NC(=O)C2CC2)CCC(=O)NCC[C@@H](C(=O)N[C@@H](Cc2c[nH]c3ccccc23)C(N)=O)NC1=O [Example 9.19, cyclo-propanoyl-cyclo(Glu-His-D-Phe-Arg-Dab)-Trp-NH2]

From US20220088146A1, “Melanocortin Receptor-Specific Peptide Formulations and Methods for Gastrointestinal Tract-Specific Delivery” (Palatin Technologies, Inc., priority 2018, published 2022)
